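Where inhibition never reached the appropriate level, the endpoint shown equals the highest concentration tested. Otherwise, values were interpolated linearly from a five-concentration, 48-hour dose response in 96-well plates. TGI marks complete inhibition of growth.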
Key:
Assay in all cases: growth of human tumour cells (NCI), 48 h
[1] = tested on: MCF7 breast
[2] = tested on: SN12C renal
[3] = tested on: SK-OV-3 ovarian
[4] = tested on: RXF 393 renal
[5] = tested on: U251 CNS
[6] = tested on: MDA-N
[7] = tested on: SK-MEL-28 melanoma
[8] = tested on: HCT-15 colon
[9] = tested on: SF-268 CNS
[10] = tested on: OVCAR-5 ovarian
[11] = tested on: BT-549 breast
[12] = tested on: NCI-H23 lung
[13] = tested on: SNB-19 CNS
[14] = tested on: NCI/ADR-RES ovarian
[15] = tested on: EKVX NSCLC
[16] = tested on: A549 NSCLC
[17] = tested on: HCC-2998 colon
[18] = tested on: T-47D breast
[19] = tested on: OVCAR-8 ovarian
[20] = tested on: UACC-62 melanoma
[21] = tested on: NCI-H522 lung
[22] = tested on: LOX IMVI melanoma
[23] = tested on: MDA-MB-231 breast
[24] = tested on: SF-539 CNS
[25] = tested on: IGROV1 ovarian
[26] = tested on: NCI-H226 lung
[27] = tested on: HOP-92 NSCLC
[28] = tested on: K-562 leukemia
[29] = tested on: HCT-116 colon
[30] = tested on: CAKI-1 renal
[31] = tested on: MOLT-4 leukemia
[32] = tested on: DU-145 prostate
[33] = tested on: SR leukemia
[34] = tested on: OVCAR-4 ovarian
[35] = tested on: RPMI-8226 leukemia
[36] = tested on: HL-60(TB) leukemia
[37] = tested on: TK-10 renal
[38] = tested on: PC-3 prostate
[39] = tested on: SK-MEL-5 melanoma
[40] = tested on: UACC-257 melanoma
[41] = tested on: HOP-62 NSCLC
[42] = tested on: MALME-3M melanoma
[43] = tested on: NCI-H460 lung
[44] = tested on: UO-31 renal
[45] = tested on: HT29 colon
[46] = tested on: CCRF-CEM leukemia
[47] = tested on: COLO 205 colon
[48] = tested on: HS 578T breast
[49] = tested on: MDA-MB-435
[50] = tested on: A498 renal
[51] = tested on: 786-0 renal
[52] = tested on: SK-MEL-2 melanoma
[53] = tested on: M14 melanoma
[54] = tested on: OVCAR-3 ovarian
[55] = tested on: KM12 colon
[56] = tested on: SF-295 CNS

CC(C)(C)C(=O)CC1(O)C=C(O)C(O)(CC(=O)C(C)(C)C)O1 (stereo unspecified)
TGI [1]: > 100 µM
TGI [2]: > 100 µM
TGI [3]: > 100 µM
TGI [4]: 45.1 µM
TGI [5]: > 100 µM
TGI [6]: > 100 µM
TGI [7]: > 100 µM
TGI [8]: > 100 µM
TGI [9]: > 100 µM
TGI [10]: > 100 µM
TGI [11]: > 100 µM
TGI [12]: 88.7 µM
TGI [13]: > 100 µM
TGI [14]: > 100 µM
TGI [15]: > 100 µM
TGI [16]: > 100 µM
TGI [17]: > 100 µM
TGI [18]: > 100 µM
TGI [19]: > 100 µM
TGI [20]: 97.1 µM
TGI [21]: 80 µM
TGI [22]: > 100 µM
TGI [23]: > 100 µM
TGI [24]: 90.2 µM
TGI [25]: 55.2 µM
TGI [26]: 56.6 µM
TGI [27]: > 100 µM
TGI [28]: > 100 µM
TGI [29]: 55.3 µM
TGI [30]: 67.6 µM
TGI [31]: > 100 µM
TGI [32]: > 100 µM
TGI [33]: > 100 µM
TGI [34]: 64.1 µM
TGI [35]: 69.7 µM
TGI [36]: 72.1 µM
TGI [37]: > 100 µM
TGI [38]: > 100 µM
TGI [39]: > 100 µM
TGI [40]: > 100 µM
TGI [41]: 64.7 µM
TGI [42]: > 100 µM
TGI [43]: > 100 µM
TGI [44]: > 100 µM
TGI [45]: > 100 µM
TGI [46]: > 100 µM
TGI [47]: > 100 µM
TGI [48]: > 100 µM
TGI [49]: > 100 µM
TGI [50]: > 100 µM
TGI [51]: 34.5 µM
TGI [52]: > 100 µM
TGI [53]: 51.1 µM
TGI [54]: > 100 µM
TGI [55]: > 100 µM
TGI [56]: > 100 µM

— PubChem BioAssay (NCI)
